Laboratory results published in patent US8158631B2, “Heterocyclic antiviral compounds” (Roche Palo Alto LLC, priority 2009, dated 2012).

Legend:
[1] = target: T1, HCV polymerase (NS5B570n-Con1) (Hepatitis C virus genotype 1b, UniProt Q9WMX2); assay: HCV NS5B RNA polymerase activity (HCV Polymerase Assay); assay type: biochemical, HCV Con1 strain
T1 construct: contains a 21 amino acid deletion at the C-terminus relative to the full-length HCV polymerase; made in house; host or cells: E. coli strain BL21(DE) pLysS, plasmid pET17b
Experimental: The enzymatic activity of HCV polymerase (NS5B570n-Con1) was measured as the incorporation of radiolabeled nucleotide monophosphates into acid insoluble RNA products. Unincorporated radiolabeled substrate was removed by filtration and scintillant was added to the washed and dried filter plate containing radiolabeled RNA product. The amount of RNA product generated by NS5B570-Con1 at the end of the reaction was directly proportional to the amount of light emitted by the scintillant.
The N-terminal 6-histidine tagged HCV polymerase, derived from HCV Con1 strain, genotype 1b (NS5B570n-Con1) contains a 21 amino acid deletion at the C-terminus relative to the full-length HCV polymerase and was purified from E. coli strain BL21(DE) pLysS. The construct, containing the coding sequence of HCV NS5B Con1 (GenBank accession number AJ242654) was inserted into the plasmid construct pET17b, downstream of a T7 promoter expression cassette and transformed into E. coli. A single colony was grown overnight as a starter culture and later used inoculate 10 L of LB media supplemented with 100 μg/mL ampicillin at 37° C. Protein expression was induced by the addition of 0.25 mM isopropyl-β-D-thiogalactopyranoside (IPTG) when optical density at […] of the culture was between 0.6 and 0.8 and cells were harvested after 16 to 18 h at 30° C. NS5B570n-Con1 was purified to homogeneity using a three-step protocol including subsequent column chromatography on Ni-NTA, SP-Sepharose HP and Superdex 75 resins.
Each 50 μL enzymatic reaction contained 20 nM RNA template derived from the complementary sequence of the Internal Ribosome Entry Site (cIRES), 20 nM NS5B570n-Con1 enzyme, 0.5 μCi of tritiated UTP (Perkin Elmer catalog no. TRK-412; specific activity: 30 to 60 Ci/mmol; stock solution concentration from 7.5×10^−5 M to 20.6×10^−6 M), 1 μM each ATP, CTP, and GTP, 40 mM Tris-HCl pH 8.0, 40 mM NaCl, 4 mM DTT (dithiothreitol), 4 mM MgCl2, and 5 μL of compound serial diluted in DMSO. Reaction mixtures were assembled in 96-well filter plates (cat #MADVNOB, Millipore Co.) and incubated for 2 h at 30° C. Reactions were stopped by addition of 10% final (v/v) trichloroacetic acid and incubated for 40 min at 4° C. Reactions were filtered, washed with 8 reaction volumes of 10% (v/v) trichloroacetic acetic acid, 4 reaction volumes of 70% (v/v) ethanol, air dried, and 25 μL of scintillant (Microscint 20, Perkin-Elmer) was added to each reaction well.
The amount of light emitted from the scintillant was converted to counts per minute (CPM) on a Topcount® plate reader (Perkin-Elmer, Energy Range: Low, Efficiency Mode Normal, Count Time: 1 min, Background Subtract: none, Cross talk reduction: Off).
Data was analyzed in Excel® (Microsoft®) and ActivityBase® (Idbs®). The reaction in the absence of enzyme was used to determine the background signal, which was subtracted from the enzymatic reactions. Positive control reactions were performed in the absence of compound, from which the background corrected activity was set as 100% polymerase activity. All data was expressed as a percentage of the positive control.
The compound concentration at which the enzyme-catalyzed rate of RNA synthesis was reduced by 50% (IC50) was calculated by fitting equation (i) to the data where“Y”
[formula] corresponds to the relative enzyme activity (in %), “% Min” is the residual relative activity at saturating compound concentration, “% Max” is the relative maximum enzymatic activity, “X” corresponds to the compound concentration, and “S” is the Hill coefficient (or slope).

[2] = test system: HCV replicon cells (2209-23), genotype 1b replicon in Huh7 cells; assay: HCV replicon assay (Renilla luciferase reporter); assay type: cell-based, HCV genotype 1b; human hepatoma Huh7 cells; conditions: Hepatitis C virus, Huh-7, 72 h, 2209-23 cells, three days incubation
in vitro = conditions: human

SMILES: COc1c(/C=C/c2ccc(NS(C)(=O)=O)cc2)cc(-n2ccncc2=O)cc1C(C)(C)C [Compound I-13]
- IC50 [1]: 0.00031 µM
- IC50 [2]: 0.0186 µM
- melting point: 214 to 216 °C
- CC50 (in vitro): 21.4 µM
